For the assay, the system named is NF-κB activation. Briefly: NF-κB activation reporter assay (pNFκB-Luc luciferase) under TNF-α stimulation. It is filed as cell-based, human. The settings on record: for inhibition at 1 µg/mL / inhibition at 10 µg/mL: Homo sapiens, read-out: The rate of inhibitory activity against NF-κB activation (%). As to the method: Using a transfection reagent (Effectene; QIAGEN), the human hepatoma cell strain HepG2 or the human hysterocarcinoma cell strain HeLa was transfected with the firefly luciferase gene (Luc) contained plasmid (pNF κB-Luc Reporter Plasmid; […]) which contained oligonucleotide having five tandem copies of NF-κB binding sequences ([…]) on a upstream region of Luc, according to the QUAGEN's protocol and it was incuvated for 6-24 hours. After addition of TNF-α (40 ng/ml) with or without the test compound, the cells were incuvated for 4 hours, and intracellular luciferase activity was measured with PicaGene LT (TOYO INK MFG Co., Ltd.) and chemical luminescence measurement device ([…]luor Plus; TECAN). The inhibition ratio was measured as a ratio to the value of the luciferase activity without the test compound.

Where [1] appears, read: Concentration of the agent: 1 μg/mL, HepG2 or HeLa cells, TNF-α 40 ng/ml, 4 hours.
[2] abbreviates: Concentration of the agent: 10 μg/mL, HepG2 or HeLa cells, TNF-α 40 ng/ml, 4 hours.

We go through 36 compounds from patent publication US8097759B2, “Inflammatory cytokine release inhibitor” (Institute of Medicinal Molecular Design, Inc., priority 2000, dated 2012).

Like-named read-outs stand apart in the source and are kept apart here.

Take `CN(C(=O)c1cc(Cl)ccc1O)c1cc(C(F)(F)F)cc(C(F)(F)F)c1` [Compound 16, N-[3,5-Bis(trifluoromethyl)phenyl]-5-chloro-2-hydroxy-N-methylbenzamide]: under setting [1], the inhibition at 1 µg/mL came out at 36.4%. Moreover, the inhibition at 10 µg/mL under setting [2] is 91.6%.

Regarding `O=C(c1cc(Br)ccc1O)N1CCCc2ccc(C(F)(F)F)cc21` [Compound 17, 1-(5-Bromo-2-hydroxy)benzoyl-7-(trifluoromethyl)-1,2,3,4-tetrahydroquinoline], the “The rate of inhibitory activity against NF-κB activation (%)” value (shortened to “The rate of inhibitory activity … (%)”) is 19.9% under setting [1] and 96.5% under setting [2].

Turning to `O=C(Nc1cc(Cl)cc(Cl)c1)c1c(O)ccc2ccccc12` [Compound 18, N-(3,5-Dichlorophenyl)-2-hydroxy-1-naphthamide], the inhibition at 1 µg/mL under setting [1] worked out at 85.3%. Also, the inhibition at 10 µg/mL under setting [2] turned out to be 90.2%.

Regarding `O=C(Nc1cc(Cl)cc(Cl)c1)c1cc2ccccc2cc1O` [Compound 19, N-(3,5-Dichlorophenyl)-3-hydroxy-2-naphthamide], the inhibition at 1 µg/mL under setting [1] is -55.4%. The inhibition at 10 µg/mL under setting [2] was determined as 95.1%.

For `COc1cc(NC(=O)c2cc3ccccc3cc2O)cc(OC)c1` [Compound 20, N-(3,5-Dimethoxyphenyl)-3-hydroxy-2-naphthamide], under setting [1], the inhibition at 1 µg/mL is -12.1%. Besides, the inhibition at 10 µg/mL under setting [2] was 86.8%.

`O=C(Nc1cc(C(F)(F)F)cc(C(F)(F)F)c1)c1ccc2ccccc2c1O` [Compound 21, N-[3,5-Bis(trifluoromethyl)phenyl]-1-hydroxy-2-naphthamide]: the inhibition at 1 µg/mL under setting [1] was 89.6%. In addition, the inhibition at 10 µg/mL under setting [2] is 95%.

Take `O=C(Nc1ccc(S(=O)(=O)F)cc1)c1ccc2ccccc2c1O` [Compound 22, {[(1-Hydroxynaphthalen-2-yl)carbonyl]amino}benzenesulfonyl fluoride]: the “The rate of inhibitory activity … (%)” value was found to be 37.0% under setting [1] and 92.9% under setting [2].

In the case of `O=C(Nc1ccc(S(=O)(=O)F)cc1)c1cc(N=Nc2cc(Cl)ccc2Cl)c2ccccc2c1O` [Compound 23, 4-({[4-(2,5-Dichlorophenyl)azo-1-hydroxynaphthalen-2-yl]-carbonyl}amino)benzenesulfonyl fluoride], under “4 h”, the inhibition at 1 µg/mL turned out to be 75.7% and the inhibition at 10 µg/mL worked out at 96.6%.

As to `O=C(Nc1cc(C(F)(F)F)cc(C(F)(F)F)c1)c1cc(Cl)cnc1O` [Compound 24, N-[3,5-Bis(trifluoromethyl)phenyl]-5-chloro-2-hydroxypyridine-3-carboxamide], the inhibition at 1 µg/mL under setting [1] was found to be 58.1%. Besides, the inhibition at 10 µg/mL under setting [2] was found to be 82.2%.

On to `O=C(Nc1cc(C(F)(F)F)ccc1Cl)c1cc(Cl)cnc1O` [Compound 25, N-[2-Chloro-5-(trifluoromethyl)phenyl]-5-chloro-2-hydroxynicotinamide], for which the inhibition at 1 µg/mL under setting [1] was 85.4%. Under setting [2], the inhibition at 10 µg/mL stood at 86.9%.

For `O=C(Nc1cc(C(F)(F)F)cc(C(F)(F)F)c1)c1ncccc1O` [Compound 27, N-[3,5-Bis(trifluoromethyl)phenyl]-3-hydroxypyridine-2-carboxamide], the inhibition at 1 µg/mL under setting [1] turned out to be 68.5%. The inhibition at 10 µg/mL under setting [2] was found to be 47.3%.

With `O=C(Nc1cc(C(F)(F)F)cc(C(F)(F)F)c1)c1c(O)[nH]c2cc(Cl)ccc12` [Compound 28, N-[3,5-Bis(trifluoromethyl)phenyl]-6-chloro-2-hydroxyindole-3-carboxamide], the inhibition at 1 µg/mL under setting [1] was 16.3%. Besides, the inhibition at 10 µg/mL under setting [2] was 41.7%.

Consider `O=C(Nc1cc(C(F)(F)F)cc(C(F)(F)F)c1)c1nc2ccccc2nc1O` [Compound 29, N-[3,5-Bis(trifluoromethyl)phenyl]-3-hydroxyquinoxaline-2-carboxamide], for which the inhibition at 1 µg/mL under setting [1] was 46.3%. Under setting [2], the inhibition at 10 µg/mL was 73%.

As for `O=C(Nc1ccc(Cl)cc1)c1cc2c(cc1O)[nH]c1ccccc12` [Compound 30, N-(4-Chlorophenyl)-2-hydroxy-9H-carbazole-3-carboxamide], the inhibition at 1 µg/mL under setting [1] worked out at 76.5%. Also, under setting [2], the inhibition at 10 µg/mL stood at 98.1%.

With `O=C(Nc1cccc2ccccc12)c1ccccc1O` [Compound 31, 2-Hydroxy-N-(1-naphthyl)benzamide], under setting [1], the inhibition at 1 µg/mL amounted to 13.3%. Also, the inhibition at 10 µg/mL under setting [2] stood at 93.2%.

For the compound `O=C(Nc1cccc2ccccc12)c1cc(Cl)ccc1O` [Compound 32, 5-Chloro-2-hydroxy-N-(1-naphthyl)benzamide], under setting [1], the inhibition at 1 µg/mL was determined as 89.3%. In addition, under setting [2], the inhibition at 10 µg/mL came to 96.3%.

On to `COc1cc(NC(=O)c2cc(Cl)ccc2O)cc2ccccc12` [Compound 33, 5-Chloro-2-hydroxy-N-(4-methoxynaphthalen-2-yl)benzamide], for which the inhibition at 1 µg/mL under setting [1] is 95.1%. Further, under setting [2], the inhibition at 10 µg/mL amounted to 99.5%.

Take `COc1cc(NC(=O)c2cc(Cl)ccc2OC(C)=O)cc2ccccc12` [Compound 34, 2-Acetoxy-5-Chloro-N-(4-methoxynaphthalen-2-yl)benzamide]: the inhibition at 1 µg/mL under setting [1] worked out at 90.5%. The inhibition at 10 µg/mL under setting [2] came out at 98.5%.

Turning to `CCOC(=O)c1c(NC(=O)c2cc(Cl)ccc2O)sc2c1CCCC2` [Compound 35, 2-(5-Chloro-2-hydroxybenzoyl)amino-4,5,6,7-tetrahydrobenzo[b]-thiophene-3-carboxylic acid ethyl ester], under setting [1], the inhibition at 1 µg/mL amounted to 88.2%. Also, the inhibition at 10 µg/mL under setting [2] was found to be 85.4%.

On to `O=C(Nc1cc(-c2ccccc2)[nH]n1)c1cc(Br)ccc1O` [Compound 36, 5-Bromo-2-hydroxy-N-(5-phenylpyrazol-3-yl)benzamide], for which the inhibition at 1 µg/mL under setting [1] came to 26.6%. In addition, the inhibition at 10 µg/mL under setting [2] was determined as 84.7%.

Turning to `O=C(Nc1nc(-c2ccccc2)c(-c2ccccc2)o1)c1cc(Br)ccc1O` [Compound 38, 5-Bromo-N-(4,5-diphenyloxazol-2-yl)-2-hydroxybenzamide], the inhibition at 1 µg/mL under setting [1] is -10.1%. Also, the inhibition at 10 µg/mL under setting [2] is 81.8%.

As for `O=C(Nc1nnc(C(F)(F)F)s1)c1ccccc1O` [Compound 40, 2-Hydroxy-N-5-[(trifluoromethyl)-1,3,4-thiadiazol-2-yl]benzamide], the “The rate of inhibitory activity … (%)” value is, setting by setting: under setting [1], 3.9%; under setting [2], 81.9%.

Regarding `O=C(Nc1nnc(C(F)(F)F)s1)c1cc(Br)ccc1O` [Compound 41], the “The rate of inhibitory activity … (%)” value reads like this: under setting [1], 26.1%; under setting [2], 90.3%.

For `O=C(Nc1ccnc(Cl)c1)c1cc(Cl)ccc1O` [Compound 42, 5-Chloro-N-(2-chloropyridin-4-yl)-2-hydroxybenzamide], the inhibition at 1 µg/mL under setting [1] worked out at 14.3%. Moreover, the inhibition at 10 µg/mL under setting [2] worked out at 92.3%.

Regarding `COc1cc(Cl)nc(NC(=O)c2cc(Cl)ccc2O)n1` [Compound 43, 5-Chloro-N-(6-chloro-4-methoxypyrimidin-2-yl)-2-hydroxybenzamide], the inhibition at 1 µg/mL under setting [1] stood at 25.5%. For the same compound, the inhibition at 10 µg/mL under setting [2] came out at 78.9%.

On to `CC(=O)Oc1ccc(Cl)cc1C(=O)Nc1cc2ccccc2[nH]1` [Compound 44, 2-Aceoxy-5-chloro-N-(indol-2-yl)benzamide], for which the “The rate of inhibitory activity … (%)” value by setting is: under setting [1], 36.7%; under setting [2], 65.8%.

As to `CCOC(=O)c1c[nH]c2c(NC(=O)c3ccccc3OC(C)=O)cccc12` [Compound 45, 7-[(2-Acetoxybenzoyl)amino]indole-3-carboxylic acid ethyl ester], the inhibition at 1 µg/mL under setting [1] was found to be 61.7%. Also, the inhibition at 10 µg/mL under setting [2] was found to be 91.3%.

As to `O=C(Nc1cnc2ccccc2c1)c1cc(Cl)ccc1O` [Compound 46, 5-Chloro-2-hydroxy-N-(quinolin-3-yl)benzamide], under setting [1], the inhibition at 1 µg/mL was -43.7%. Also, under setting [2], the inhibition at 10 µg/mL amounted to 85.7%.

Take `CCn1c2ccccc2c2cc(NC(=O)c3cc(Cl)ccc3O)ccc21` [Compound 47, N-(9-Ethylcarbazol-3-yl)-5-chloro-2-hydroxybenzamide]: under setting [1], the inhibition at 1 µg/mL came to 91.3%. Also, the inhibition at 10 µg/mL under setting [2] was 99.4%.

For the compound `O=C(Nc1cc(C(F)(F)F)cc(C(F)(F)F)c1)c1ccccc1O` [Compound 48], the inhibition at 1 µg/mL under setting [1] came out at 93.3%. Further, under setting [2], the inhibition at 10 µg/mL is 95.6%.

For `O=C(Nc1cc(C(F)(F)F)cc(C(F)(F)F)c1)c1cc(F)ccc1O` [Compound 49], the inhibition at 1 µg/mL under setting [1] was found to be 81.5%. Moreover, under setting [2], the inhibition at 10 µg/mL was determined as 94.3%.

Consider `O=C(Nc1cc(C(F)(F)F)cc(C(F)(F)F)c1)c1cc(Cl)ccc1O` [Compound 50], for which the inhibition at 1 µg/mL under setting [1] turned out to be 96.3%. In addition, under setting [2], the inhibition at 10 µg/mL was 99.5%.

Consider `O=C(Nc1cc(C(F)(F)F)cc(C(F)(F)F)c1)c1cc(Br)ccc1O` [Compound 51], for which, under setting [1], the inhibition at 1 µg/mL was found to be 94.9%. Besides, the inhibition at 10 µg/mL under setting [2] stood at 98.6%.

On to `O=C(Nc1cc(C(F)(F)F)cc(C(F)(F)F)c1)c1cc([N+](=O)[O-])ccc1O` [Compound 53], for which, under setting [1], the inhibition at 1 µg/mL worked out at 92%. Also, the inhibition at 10 µg/mL under setting [2] was 99.2%.

Regarding `Cc1ccc(O)c(C(=O)Nc2cc(C(F)(F)F)cc(C(F)(F)F)c2)c1` [Compound 55], the inhibition at 1 µg/mL under setting [1] was 95.8%. Besides, the inhibition at 10 µg/mL under setting [2] worked out at 99.4%.

Take `CC(O)c1ccc(O)c(C(=O)Nc2cc(C(F)(F)F)cc(C(F)(F)F)c2)c1` (stereo not drawn) [Compound 57]: under setting [1], the inhibition at 1 µg/mL was found to be 76.8%. Besides, the inhibition at 10 µg/mL under setting [2] came to 96%.
